# Experimental data from US20230174468A1, “SULFATED PILLARARENES, METHODS OF MAKING SAME, AND USES THEREOF” (priority 2007, published 2023).
# Like-named read-outs stand apart in the source and are kept apart here.
# What was measured:
# [1] = M2.cis complex, previous work; cited from earlier work
# [2] = TA100, +S9, positive control compounds
# [3] = TA100, −S9, positive control compounds
# [4] = TA1535, +S9, positive control compounds
# [5] = TA1535, −S9, positive control compounds
# [6] = TA1537, +S9, positive control compounds
# [7] = TA1537, −S9, positive control compounds
# [8] = TA98, +S9, positive control compounds
# [9] = TA98, −S9, positive control compounds
Structure (SMILES),number of positive wells (TA100; [2]),significance of positive wells vs control (Fisher's exact test) (TA100; [2]),number of positive wells (TA100; [3]),significance of positive wells vs control (Fisher's exact test) (TA100; [3]),number of positive wells (TA1535; [4]),significance of positive wells vs control (Fisher's exact test) (TA1535; [4]),number of positive wells (TA1535; [5]),significance of positive wells vs control (Fisher's exact test) (TA1535; [5]),number of positive wells (TA1537; [6]),significance of positive wells vs control (Fisher's exact test) (TA1537; [6]),number of positive wells (TA1537; [7]),significance of positive wells vs control (Fisher's exact test) (TA1537; [7]),number of positive wells (TA98; [8]),significance of positive wells vs control (Fisher's exact test) (TA98; [8]),number of positive wells (TA98; [9]),significance of positive wells vs control (Fisher's exact test) (TA98; [9]),Ka [1]
O=c1c(O)c(-c2ccc(O)c(O)c2)oc2cc(O)cc(O)c12 [Quercetin],5/48,"− (p >0.05 (negative, −))",0/48,"− (p >0.05 (negative, −))",0/48,"− (p >0.05 (negative, −))",1/48,"− (p >0.05 (negative, −))",5/48,"+ (0.01<p<0.05 (weak positive, +))",1/48,"− (p >0.05 (negative, −))",10/48,"+++ (p<0.001 (very strong positive, +++))",5/48,"+ (0.01<p<0.05 (weak positive, +))",–
"Nc1c2ccccc2nc2ccccc12 [Host 9-AA, 9-aminoacridine]",2/48,"− (p >0.05 (negative, −))",0/48,"− (p >0.05 (negative, −))",0/48,"− (p >0.05 (negative, −))",0/48,"− (p >0.05 (negative, −))",24/48,"+++ (p<0.001 (very strong positive, +++))",24/48,"+++ (p<0.001 (very strong positive, +++))",0/48,"− (p >0.05 (negative, −))",0/48,"− (p >0.05 (negative, −))",–
"Nc1ccc2cc3ccccc3cc2c1 [Host 2-AA, 2-aminoanthracene]",11/48,"+ (0.01<p<0.05 (weak positive, +))",0/48,"− (p >0.05 (negative, −))",9/48,"++ (0.001<p <0.01 (strong positive, ++))",0/48,"− (p >0.05 (negative, −))",6/48,"+ (0.01<p<0.05 (weak positive, +))",0/48,"− (p >0.05 (negative, −))",13/48,"+++ (p<0.001 (very strong positive, +++))",0/48,"− (p >0.05 (negative, −))",–
C[C@]12N3Cc4c(c(OCCCS(=O)(=O)[O-])c5ccccc5c4OCCCS(=O)(=O)[O-])CN1C(=O)N1CN4C(=O)N5CN6C(=O)N7CN8C(=O)N9Cc%10c(c(OCCCS(=O)(=O)[O-])c%11ccccc%11c%10OCCCS(=O)(=O)[O-])CN%10C(=O)N(CN%11C(=O)N(CN%12C(=O)N(CN(C3=O)[C@]12C)[C@@H]4[C@H]%125)[C@@H]6[C@H]%117)[C@]8(C)[C@@]9%10C.[Na+].[Na+].[Na+].[Na+] [Host M2],–,–,–,–,–,–,–,–,–,–,–,–,–,–,–,–,4.8e+06 M⁻¹
CN(N=O)C(=O)N[C@H]1C(O)O[C@H](CO)[C@@H](O)[C@@H]1O (mixture of isomers) [Streptozotocin],7/48,"− (p >0.05 (negative, −))",5/48,"+ (0.01<p<0.05 (weak positive, +))",24/48,"+++ (p<0.001 (very strong positive, +++))",16/48,"+++ (p<0.001 (very strong positive, +++))",1/48,"− (p >0.05 (negative, −))",1/48,"− (p >0.05 (negative, −))",0/48,"− (p >0.05 (negative, −))",0/48,"− (p >0.05 (negative, −))",–
